From patent US11261185B2, “Bicyclic heterocyclic derivatives” (Merck Patent GmbH, priority 2015, dated 2022)

Test system: PDH-E1 alpha (pSer300) in HEK293T cells
Assay: Cellular immunofluorescence assay for compound activities (PDH-E1 alpha pSer300)
Type: cell-based, human
Settings: 5 hours incubation, Anti-PDH-E1 alpha (pSer300) immunofluorescence, read-out: IC50 (cell data)
Description: Cellular Assay for Determination of Compound Activities
Compound activities were determined in a cellular immunofluorescence assay. Human HEK293T cells were seeded into black 384-well plates with clear bottom and grown overnight.
Next day, test compounds were added to the wells and the plates incubated for 5 hours. Following this, cells were fixed with formaldehyde, permeabilised and blocked. The primary antibody, Anti-PDH-E1 alpha (pSer300), AP1064 (Merck Millipore) was added and incubated overnight in the plate wells. Next, cells were washed and the seconday antibody, Alexa Fluor 488, goat anti-rabbit ab (A-11008, Invitrogen) was added together with Hoechst 33258 (H3569, Invitrogen) and incubated for 1 hour in the plate wells. Finally, cells were washed and the plates were measured on the laser scanning cytometer acumen hci (TTpLabtech).
The raw data were normalized against a pharmacological inhibitor control and dose response curves were generated by plotting the percent effect values using the software package Genedata screener (Genedata).

`C[C@@](O)(C(=O)N1CCc2c(ncn2-c2ccc(F)cc2)C1)C(F)(F)F` [Compound A44, (R)-3,3,3-Trifluoro-1-[1-(4-fluoro-phenyl)-1,4,6,7-tetrahydro-imidazo[4,5-c]pyridin-5-yl]-2-hydroxy-2-methyl-propan-1-one] was tested. Which IC50 did it give?
Its IC50 is 3 to 50 µM.

Which IC50 does the source give for `C[C@@](O)(C(=O)N1CCc2c(ncn2-c2ccc(Cl)cc2)C1)C(F)(F)F` [Compound A45, (R)-1-[1-(4-Chloro-phenyl)-1,4,6,7-tetrahydro-imidazo[4,5-c]pyridin-5-yl]-3,3,3-trifluoro-2-hydroxy-2-methyl-propan-1-one] here?
The IC50 was 3 to 50 µM.
